Assay results: patent publication US20240101570A1 (AMGEN INC., priority 2020, published 2024)

Experiments:
[1] = test system: HCT116 MTAP null cells; test: HCT116 MTAP null cell proliferation / viability (CellTiter-Glo, 6 days); type: cell-based; conditions: HCT116-MTAP null, 144 h, HCT116 MTAP null cells, 6 days, CellTiter-Glo; read-out: HCT-116 MTAP null IC50
Procedure, shortened: (§1)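 CellTiter-Glo luminescence, 6-day exposure, RPMI 1640 + 10% FBS. Dosing: 1:3 series (8-9 pts, top 1 or 10 μM) or 1:2 series (22 pts, top 10 or 50 μM), DMSO control. IC50 = 50% of control via curve fit.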

[2] = test system: HCT116 WT cells; test: HCT116 WT cell proliferation / viability (CellTiter-Glo, 6 days); type: cell-based; conditions: Homo sapiens, HCT-116, 144 h, HCT116 WT cells, 6 days, CellTiter-Glo; read-out: HCT-116 WT IC50
Procedure, shortened: as §1

Structure (SMILES) | IC50 [1] [nM] | IC50 [2] [nM]
CC(C)N(Cc1ccc(C2CC2)nc1)C(=O)c1cc2c3c(c(N)nc2cn1)COC3 [Example 383, 4-amino-N-((6-cyclopropyl-3-pyridinyl)methyl)-N-(2-propanyl)-1,3-dihydrofuro[3,4-c][1,7]naphthyridine-8-carboxamide] | 1310 | 43000
C[C@H]1OCc2c1c(N)nc1ccc(C(=O)N(C)Cc3ccc(C#N)cn3)cc21 [Example 386, (3R)-4-amino-N-((5-cyano-2-pyridinyl)methyl)-N,3-dimethyl-1,3-dihydrofuro[3,4-c]quinoline-8-carboxamide] | 455 | 30300
CCOc1ccc(CN(C(=O)c2ccc3nc(N)c4c(c3c2)COC4)C23CC(C2)C3)nn1 [Example 387, 4-amino-N-(bicyclo[1.1.1]pentan-1-yl)-N-((6-ethoxy-3-pyridazinyl)methyl)-1,3-dihydrofuro[3,4-c]quinoline-8-carboxamide] | 175 | 4040
CCOc1ccc(CN(C(=O)c2cc3c4c(c(N)nc3cn2)COC4)[C@H](C)COC)nn1 [Example 388, 4-amino-N-((6-ethoxy-3-pyridazinyl)methyl)-N-((2R)-1-methoxy-2-propanyl)-1,3-dihydrofuro[3,4-c][1,7]naphthyridine-8-carboxamide] | 54 | 1280
CN(Cc1ccc(C(F)(F)F)nn1)C(=O)c1cc2c3c(c(N)nc2cc1Cl)COC3 [Example 389, 4-amino-7-chloro-N-methyl-N-((6-(trifluoromethyl)-3-pyridazinyl)methyl)-1,3-dihydrofuro[3,4-c]quinoline-8-carboxamide] | 50 | 3390
CC(C)N(Cc1ccc(C(F)(F)F)nn1)C(=O)c1ccc2nc(N)c3c(c2c1)COC3 [Example 391, 4-amino-N-(2-propanyl)-N-((6-(trifluoromethyl)-3-pyridazinyl)methyl)-1,3-dihydrofuro[3,4-c]quinoline-8-carboxamide] | 91 | 4540
CC(C)N(Cc1ccc(C#N)cn1)C(=O)c1cc2c3c(c(N)nc2cc1Cl)COC3 [Example 392, 4-amino-7-chloro-N-((5-cyano-2-pyridinyl)methyl)-N-(2-propanyl)-1,3-dihydrofuro[3,4-c]quinoline-8-carboxamide] | 57 | 1540
CC(C)N(Cc1ccc(C(F)(F)F)nn1)C(=O)c1ccc2nc(N)c3c(c2c1)CO[C@@H]3C [Example 393, (3R)-4-amino-3-methyl-N-(2-propanyl)-N-((6-(trifluoromethyl)-3-pyridazinyl)methyl)-1,3-dihydrofuro[3,4-c]quinoline-8-carboxamide] | 113 | 6930
CC(C)N(Cc1ccc(C(F)(F)F)nn1)C(=O)c1cc2c3c(c(N)nc2cc1Cl)COC3 [Example 394, 4-amino-7-chloro-N-(2-propanyl)-N-((6-(trifluoromethyl)-3-pyridazinyl)methyl)-1,3-dihydrofuro[3,4-c]quinoline-8-carboxamide] | 30 | 831
Nc1nc2cc(Cl)c(C(=O)N(Cc3ccc(C(F)(F)F)cn3)C34CC(C3)C4)cc2c2c1COC2 [Example 395, 4-amino-N-(bicyclo[1.1.1]pentan-1-yl)-7-chloro-N-((5-(trifluoromethyl)-2-pyridinyl)methyl)-1,3-dihydrofuro[3,4-c]quinoline-8-carboxamide] | 31 | 535
CCOc1ccc(CN(C(=O)c2cc3c4c(c(N)nc3cn2)[C@@H](C)OC4)[C@H](C)COC)nn1 [Example 397, (3R)-4-amino-N-((6-ethoxy-3-pyridazinyl)methyl)-N-((2R)-1-methoxy-2-propanyl)-3-methyl-1,3-dihydrofuro[3,4-c][1,7]naphthyridine-8-carboxamide] | 55 | 1100
CN(Cc1ccc(C(F)(F)F)cc1)C(=O)c1ccc2nc(N)c3c(c2c1)COC3 [Example 399, 4-amino-N-methyl-N-(4-(trifluoromethyl)benzyl)-1,3-dihydrofuro[3,4-c]quinoline-8-carboxamide] | 393 | 4430
CN(Cc1ccc(C(F)(F)F)nc1)C(=O)c1ccc2nc(N)c3c(c2c1)COC3 [Example 400, 4-amino-N-methyl-N-((6-(trifluoromethyl)-3-pyridinyl)methyl)-1,3-dihydrofuro[3,4-c]quinoline-8-carboxamide] | 970 | > 10000
CC(C)N(Cc1ccc(C2CC2)nc1)C(=O)c1cc2c3c(c(N)nc2cc1Cl)COC3 [Example 401, 4-amino-7-chloro-N-((6-cyclopropyl-3-pyridinyl)methyl)-N-(2-propanyl)-1,3-dihydrofuro[3,4-c]quinoline-8-carboxamide] | 84 | 3080

Next, values leading:

IC50 [1] [nM] | IC50 [2] [nM] | Structure (SMILES)
1160 | 22800 | Nc1nc2cnc(C(=O)N(Cc3ccc(C(F)(F)F)nn3)C3CC3)cc2c2c1COC2 [Example 382, 4-amino-N-cyclopropyl-N-((6-(trifluoromethyl)-3-pyridazinyl)methyl)-1,3-dihydrofuro[3,4-c][1,7]naphthyridine-8-carboxamide]
53 | 1380 | CC(C)N(Cc1ccc(C(F)(F)F)cn1)C(=O)c1ccc2nc(N)c3c(c2c1)CO[C@@H]3C [Example 384, (3R)-4-amino-3-methyl-N-(2-propanyl)-N-((5-(trifluoromethyl)-2-pyridinyl)methyl)-1,3-dihydrofuro[3,4-c]quinoline-8-carboxamide]
157 | 7280 | CC(C)N(Cc1ccc(C2CC2)cn1)C(=O)c1cc2c3c(c(N)nc2cn1)COC3 [Example 385, 4-amino-N-((5-cyclopropyl-2-pyridinyl)methyl)-N-(2-propanyl)-1,3-dihydrofuro[3,4-c][1,7]naphthyridine-8-carboxamide]
20 | 629 | C[C@H]1OCc2c1c(N)nc1cnc(C(=O)N(Cc3ccc(C(F)(F)F)cn3)CC3CC3)cc21 [Example 396, (3R)-4-amino-N-(cyclopropylmethyl)-3-methyl-N-((5-(trifluoromethyl)-2-pyridinyl)methyl)-1,3-dihydrofuro[3,4-c][1,7]naphthyridine-8-carboxamide]
49 | 1390 | CC1(CN(Cc2ccc(C(F)(F)F)cn2)C(=O)c2cc3c4c(c(N)nc3cn2)COC4)CC1 [Example 398, 4-amino-N-((1-methylcyclopropyl)methyl)-N-((5-(trifluoromethyl)-2-pyridinyl)methyl)-1,3-dihydrofuro[3,4-c][1,7]naphthyridine-8-carboxamide]
≥ 10000 | > 10000 | CC(C)N(Cc1ccc(C2CC2)nc1)C(=O)c1cc2c3c(c(N)nc2cn1)[C@H](C)OC3 [Example 403, (3S)-4-amino-N-((6-cyclopropyl-3-pyridinyl)methyl)-3-methyl-N-(2-propanyl)-1,3-dihydrofuro[3,4-c][1,7]naphthyridine-8-carboxamide]
180 | 11400 | CC(C)N(Cc1ccc(C#N)cn1)C(=O)c1cc2c3c(c(N)nc2cn1)[C@@H](C)OC3 [Example 404, (3R)-4-amino-N-((5-cyano-2-pyridinyl)methyl)-3-methyl-N-(2-propanyl)-1,3-dihydrofuro[3,4-c][1,7]naphthyridine-8-carboxamide]
362 | > 10000 | C[C@H]1OCc2c1c(N)nc1cnc(C(=O)N(Cc3ccc(C(F)(F)F)nn3)C3CC3)cc21 [Example 405, (3R)-4-amino-N-cyclopropyl-3-methyl-N-((6-(trifluoromethyl)-3-pyridazinyl)methyl)-1,3-dihydrofuro[3,4-c][1,7]naphthyridine-8-carboxamide]
97 | 4140 | CC(C)N(Cc1ccc(C2CC2)cn1)C(=O)c1cc2c3c(c(N)nc2cn1)[C@@H](C)OC3 [Example 406, (3R)-4-amino-N-((5-cyclopropyl-2-pyridinyl)methyl)-3-methyl-N-(2-propanyl)-1,3-dihydrofuro[3,4-c][1,7]naphthyridine-8-carboxamide]
3660 | > 10000 | CC(C)N(Cc1ccc(C2CC2)cn1)C(=O)c1cc2c3c(c(N)nc2cn1)[C@H](C)OC3 [Example 407, (3S)-4-amino-N-((5-cyclopropyl-2-pyridinyl)methyl)-3-methyl-N-(2-propanyl)-1,3-dihydrofuro[3,4-c][1,7]naphthyridine-8-carboxamide]
86 | 3350 | CCN(Cc1ccc(C(F)(F)F)cn1)C(=O)c1cc2c3c(c(N)nc2cn1)[C@@H](C)OC3 [Example 408, (3R)-4-amino-N-ethyl-3-methyl-N-((5-(trifluoromethyl)-2-pyridinyl)methyl)-1,3-dihydrofuro[3,4-c][1,7]naphthyridine-8-carboxamide]
56 | 5870 | CCOc1ccc(CN(C(=O)c2cc3c4c(c(N)nc3cn2)[C@@H](C)OC4)C23CC(C2)C3)nn1 [Example 409, (3R)-4-amino-N-(bicyclo[1.1.1]pentan-1-yl)-N-((6-ethoxy-3-pyridazinyl)methyl)-3-methyl-1,3-dihydrofuro[3,4-c][1,7]naphthyridine-8-carboxamide]
87 | 3260 | COC[C@@H](C)N(Cc1ccc(Br)nn1)C(=O)c1cc2c3c(c(N)nc2cn1)[C@@H](C)OC3 [Example 410, (3R)-4-amino-N-((6-bromo-3-pyridazinyl)methyl)-N-((2R)-1-methoxy-2-propanyl)-3-methyl-1,3-dihydrofuro[3,4-c][1,7]naphthyridine-8-carboxamide]
181 | 13600 | C[C@H]1OCc2c1c(N)nc1cnc(C(=O)N(C)Cc3ccc(C(F)(F)F)cn3)cc21 [Example 411, (3R)-4-amino-N,3-dimethyl-N-((5-(trifluoromethyl)-2-pyridinyl)methyl)-1,3-dihydrofuro[3,4-c][1,7]naphthyridine-8-carboxamide]
